According to patent US8871937B2, “8-hydroxy-quinoline derivatives” (“AVIDIN” Kutato, Fejleszto es Kereskedelmi Korlatolt …, priority 2010, dated 2014):

How the values were obtained:
Wistar rats = assay: Forced swimming test; assay type: in vivo, rat; conditions: 30 mg/kg, previous experiments
Procedure: Wistar rats received from Charles River Laboratories (Budapest, Hungary) were used as test animals. App. 2 month rats were used (200-300 g body weight). The animals were conditioned for app. 1 week. The animals received standard laboratory food (Charles River Laboratories, Budapest, Hungary) and tap water ad libitum. The temperature and humidity were kept at 22±2° C. and 60±10%, respectively. The rats were kept in groups of 5 in 45×35×25 cm Makrolon cages. Day/night cycles of 12 hours were used; the light was switched off at 19:00. The experiments were conducted in the daylight period. The experiments were conducted in accordance with the European Communities Council Directive of 24 Nov. 1985 (86/609/EEC, according to the control and approval of the Animal Welfare Committee of the Institute of Experimental Medicine).
Rats were forced to swim twice as described in the following publication: Porsolt et al., 1978. On the first day every rat was placed in a 15 cm wide, 35 cm high glass cylinder filled with water to 30 cm. […] Behaviour of the animals was recorded by a video camera located 2 meters from the cylinders. The following behaviour factors were recorded: struggling (the animal tries to leave the cylinder by climbing on the walls); swimming (swimming round in the cylinder) and floating (the animal makes only the movements necessary to keep its head above the wafer). […]

[1] = system: CCRF-CEM (human leukaemia); assay: MTS cytotoxicity test, CCRF-CEM; assay type: cell-based; conditions: read-out: EC50 (concentration where half of the cells died, MTS test)
Procedure: (§1) In our experiment, HepG2 and Hep3B (human hepatocellular carcinoma), SUM149PT (human breast tumour), K562 (human erythroblastic leukaemia, U87 (human glioma), CCRF-CEM (human leukaemia) cell cultures were used; these were grown in the following medium: U87, CCRF-CEM; Dulbecco's Modified Eagle Medium (D-MEM) (high glucose) (Gibco BRL, Carlsbad, Calif., USA), penicillin (50 IU/ml-streptomycin ([…]), 10% foetal cattle serum.
CCRF-CEM: RPMI Media 1640 (Gibco BRL, Carlsbad, Calif., USA), penicillin (50 IU/ml-streptomycin ([…]), 10% foetal cattle serum.
(§2) The cells were placed into 96-well microtitration plates (10 000 cells/well), and after 24 hours the cells were incubated with the various substances. After incubation MTS test (3-(4,5-dimethylthiazol-2-yl)-5-(3-carboxymethoxyphenyl)-2-(4-sulphophenyl)-2H-tetrazolium) (Promega, Madison, Wis., USA) was conducted adding it in a final concentration of 0.5 mg/ml to the cells, which were then incubated at 37° C. for 1 hour. The cells were washed with PBS and the formazan dye was dissolved in isopropanol. The amount of the formazan dye transformed was measured by means of a Powerwave reader (Biotek, Winooski, Vt.) at 570 nm; background measurement 690 nm. The calibration curve was obtained in such a way that the capacity of the serial dilutions of the cells to transform MTS was measured and the viable cell count was calculated using Gen5 software.
(§3) In the table the EC50 values of each substance is presented (the concentration where half of the cells died based on the results of the MTS test).

[2] = system: Hep3B (human hepatocellular carcinoma); assay: MTS cytotoxicity test, Hep3B; assay type: cell-based; conditions: Hep3B (liver), read-out: EC50 (concentration where half of the cells died, MTS test)
Procedure: as §1
(§4) 1:1 mixture of HepG2, Hep3B, SUM149PT: Dulbecco's Modified Eagle Medium (D-MEM) (high glucose) (Gibco BRL, Carlsbad, Calif., USA) and Nutrient Mixture F-12 Ham (Sigma, St. Louis, Mo., USA), penicillin (50 IU/ml)-streptomycin ([…]), 10% foetal cattle serum.
as §2, §3

[3] = system: HepG2 (human hepatocellular carcinoma); assay: MTS cytotoxicity test, HepG2; assay type: cell-based; conditions: HepG2 (liver), read-out: EC50 (concentration where half of the cells died, MTS test)
Procedure: as §1, §4, §2, §3

[4] = system: K562 (human erythroblastic leukaemia); assay: MTS cytotoxicity test, K562; assay type: cell-based; conditions: read-out: EC50 (concentration where half of the cells died, MTS test)
Procedure: as §1, §2, §3

[5] = system: SUM149PT (human breast tumour); assay: MTS cytotoxicity test, SUM149PT; assay type: cell-based; conditions: read-out: EC50 (concentration where half of the cells died, MTS test)
Procedure: as §1, §4, §2, §3

U87 (human glioma) = assay: MTS cytotoxicity test, U87; assay type: cell-based; conditions: U-87 MG, read-out: EC50 (concentration where half of the cells died, MTS test)
Procedure: as §1, §2, §3

[6] = biological target: T1, Matrix metalloproteinase 2 (MMP-2, 72 kDa gelatinase) (Rattus norvegicus, UniProt P33436); assay: Gelatinase activity in gel after electrophoresis of H9c2 supernatant (MMP-2); assay type: biochemical; conditions: 30 uM, substance present during incubation of the gel
T1 construct: endogenous in cells; host or cells: H9c2 rat embryonic myocardial cells (culture supernatant)
T1 sequence (P33436 110-662): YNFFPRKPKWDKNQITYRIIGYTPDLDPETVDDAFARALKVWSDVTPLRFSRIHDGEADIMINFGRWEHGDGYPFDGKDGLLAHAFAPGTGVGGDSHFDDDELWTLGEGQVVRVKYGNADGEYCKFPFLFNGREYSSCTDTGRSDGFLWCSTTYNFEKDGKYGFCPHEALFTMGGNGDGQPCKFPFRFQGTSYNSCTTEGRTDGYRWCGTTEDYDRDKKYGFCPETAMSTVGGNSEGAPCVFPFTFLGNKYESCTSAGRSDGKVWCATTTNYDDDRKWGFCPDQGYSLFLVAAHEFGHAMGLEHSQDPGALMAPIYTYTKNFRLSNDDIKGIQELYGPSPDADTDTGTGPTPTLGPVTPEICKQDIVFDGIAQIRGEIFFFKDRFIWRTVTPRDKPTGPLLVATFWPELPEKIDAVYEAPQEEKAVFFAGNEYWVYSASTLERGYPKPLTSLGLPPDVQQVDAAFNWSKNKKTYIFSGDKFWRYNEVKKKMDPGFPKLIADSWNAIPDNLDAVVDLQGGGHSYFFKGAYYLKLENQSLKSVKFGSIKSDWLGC
Procedure: (§5) H9c2 rat embryonic myocardial cells (from ATCC, Rockville, Md., USA) were grown in Dulbecco's modified eagle's medium containing 10% cattle serum, 4 mM L-glutamine (Sigma-Aldrich, Hungary), 100 IU/ml penicillin and 100 ug/ml streptomycin.

[7] = biological target: T2, Matrix metalloproteinase 9 (MMP-9, 92 kDa gelatinase) (Rattus norvegicus, UniProt P50282); assay: Gelatinase activity in gel after electrophoresis of H9c2 supernatant (MMP-9); assay type: biochemical; conditions: 30 uM, substance present during incubation of the gel
T2 construct: endogenous in cells; host or cells: H9c2 rat embryonic myocardial cells (culture supernatant)
Procedure: as §5

Lewis rats = assay: Heterotopic heart transplantation, reperfusion injury; assay type: in vivo, rat; conditions: 3 mg/kg
Procedure: A heterotropic heart transplant experiment model was performed in a way described earlier (Poly(ADP-Ribose): inhibition of polymerase reduces the reperfusion injury occurring after heart transplantation (Szabó et al. 2002) , Briefly: the donor hearts were transplanted from Lewis rats. After ischemic protection performed at 4° C. for 1 hour, the hearts were implanted intraabdominally via anastomising the aorta and the pulmonary artery of the donor heart with the abdominal aorta or vena cava of the recipient rat. Care of all animals was performed by people in line with the requirements of “Principles of Laboratory Animal Care”; National Society of Medical Research, and the Guide for the Care and Use of Laboratory Animals prepared by the National Academy of Sciences; publisher: National Institutes of Health (NIH Publication No. 86-23, revised 1996).
The functional measurements of the transplant were carried out as follows: the left ventricular systolic pressure (LVSP), left ventricular end diastolic pressure (LVEDP), rate of the change of blood pressure (dP/dt) and relaxation time constant (TE) were measured by means of a Millar micromanometer (Millar Instruments, Inc.), with different LV, using an intraventricular ballon. The total coronary blood flow (CBF) was measured on the donor aorta with perivascular ultrasonic flow sample. After determination of the baseline, the endothelium-dependent vasodilator acetylcholine (ACH, 1 nmol/l, 0.2 ml) and bradykinin (BK 0.1 nmol/l, 0.2 ml), and the endothelium-independent vasodilator sodium nitroprussid (SNP, 10 nmol/l, 0.2 ml) were added directly into the coronary arteries of the transplant through the donor aorta. Between the infusions, CBP was allowed to return to the baseline level. The vasodilator response was expressed as the maximum percentage change of CBF from the baseline.
Two transplant groups were studied (n=6/in each group). Just before loosening the aorta clamp, slow injection of common salt solution (control group) or the compound according to Example 1 (3 mg/kg) was started and it was continued during the first 5 minutes of the reperfusion period.
Measurement of the systolic and diastolic function and CBF in group A (control) and group B (compound according to Example 1) was performed 1 hour after reperfusion.

[8] = after 60 minute reperfusion, vs control

T2 sequence (P50282 108-708): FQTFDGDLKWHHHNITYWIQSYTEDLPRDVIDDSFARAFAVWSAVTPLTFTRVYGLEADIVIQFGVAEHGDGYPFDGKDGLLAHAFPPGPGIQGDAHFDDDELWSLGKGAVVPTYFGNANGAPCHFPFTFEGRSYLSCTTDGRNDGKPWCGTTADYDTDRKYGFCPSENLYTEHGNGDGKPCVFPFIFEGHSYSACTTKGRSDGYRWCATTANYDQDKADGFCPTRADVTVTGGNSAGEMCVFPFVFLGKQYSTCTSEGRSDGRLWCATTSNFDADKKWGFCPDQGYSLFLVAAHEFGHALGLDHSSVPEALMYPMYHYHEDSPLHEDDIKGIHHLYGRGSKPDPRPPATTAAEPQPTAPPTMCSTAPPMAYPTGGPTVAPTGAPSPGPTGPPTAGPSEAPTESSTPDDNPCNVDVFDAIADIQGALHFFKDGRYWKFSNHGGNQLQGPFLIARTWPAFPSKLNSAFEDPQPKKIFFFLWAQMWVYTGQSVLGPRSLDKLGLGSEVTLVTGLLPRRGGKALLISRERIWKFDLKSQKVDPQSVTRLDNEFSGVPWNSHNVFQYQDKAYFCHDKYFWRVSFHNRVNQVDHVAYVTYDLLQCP

| SMILES | EC50 [1] | EC50 [2] | EC50 [3] | EC50 [4] | EC50 [5] | EC50 (U87 (human glioma)) | also measured |
| --- | --- | --- | --- | --- | --- | --- | --- |
| CN(C)CCCN1c2ccccc2CCc2ccccc21 [impipramine, imipramine] |  |  |  |  |  |  | floating in forced swimming test (Wistar rats): reliably reduced floating |
| Cc1cccc(NC(c2ccc(C(F)(F)F)cc2)c2ccc3cccnc3c2O)n1 (stereo not shown) [Example 7, 7-[(6-methyl-pyridin-2-ylamino)-(4-trifluoromethyl-phenyl)-methyl]-quinolin-8-ol] | 300 nM | 5 µM | 500 nM | 15 µM |  |  |  |
| Cc1ccnc(NC(c2ccc(C(F)(F)F)cc2)c2ccc3cccnc3c2O)c1 (stereo not shown) [Example 8, 7-[(4-methyl-pyridin-2-ylamino)-(4-trifluoromethylphenyl)-methyl]-quinolin-8-ol] |  |  |  | 8 µM | 10 µM |  |  |
| Cc1ccnc(NC(c2ccc(C(F)(F)F)cc2)c2ccc3cccnc3c2O)n1 (stereo not shown) [Example 10, 7-((4-methylpyrimidin-2-ylamino) (4-(trifluoromethyl)phenyl)methyl)quinolin-8-ol] |  |  | 1000 nM | 7 µM | 5 µM | 5000 nM |  |
| Oc1c(C(Nc2ccc(C(F)(F)F)cc2)c2ccccn2)ccc2cccnc12 (stereo not shown) [Example 5, 7-[pyridin-2-yl-(4-trifluoromethyl-phenylamino)-methyl]-quinolin-8-ol] | 100 nM | 2 µM | 2000 nM |  |  | 3500 nM |  |
| CCOC(=O)c1ccc(NC(c2ccc([N+](=O)[O-])cc2)c2ccc3cccnc3c2O)cc1 (stereo not shown) [Example 2, Ethyl 4-((8-hydroxyquinolin-7-yl) (4-nitrophenyl)methylamino)benzoate] | 1000 nM | 5 µM | 2500 nM |  |  | 4000 nM |  |
| Cc1cccc(NC(c2ccc(F)c(F)c2)c2ccc3cccnc3c2O)n1 (stereo not shown) [Example 16, 7-((6-methylpyridin-2-ylamino) (3,4-difluorophenyl)methyl)quinolin-8-ol] |  |  | 5000 nM | 1.5 µM |  | 2500 nM |  |
| Cc1cccc(NC(c2ccc(C(F)(F)F)cc2F)c2ccc3cccnc3c2O)n1 (stereo not shown) [7-((6-methylpyridin-2-ylamino)(2-fluoro-4-(trifluoromethyl)phenyl)methyl)quinolin-8-ol] |  |  | 1000 nM | 1.5 µM |  | 2500 nM |  |
| Cc1cccc(NC(c2ccc([N+](=O)[O-])cc2)c2ccc3cccnc3c2O)n1 (stereo not shown) [Example 1, 7-((6-methylpyridin-2-ylamino) (4-nitrophenyl)methyl)quinolin-8-ol] | 1000 nM |  | 500 nM | 1 µM | 10 µM | 2500 nM | inhibition of 72 kDa gelatinase (MMP-2) [6]: completely inhibited; inhibition of 92 kDa gelatinase (MMP-9) [7]: inhibited the 92 kDa gelatinase (MMP-9) as well, hut to a less extent than the 72 kDa gelatinase; LVEDP (left ventricular end diastolic pressure) (Lewis rats; [8]): did not show changing values between the groups; LVSP (left ventricular systolic pressure) (Lewis rats; [8]): significantly (P=0.05) higher; peak positive dP/dt (Lewis rats; [8]): significantly (P=0.05) higher; systolic functional recovery (Lewis rats; [8]): significantly better; reperfusion injury after heart transplantation (Lewis rats; injection at start of reperfusion): Reduces Reperfusion Injury; systolic heart function curves (Lewis rats; vs group treated with the carrier (FIG. 1a, 1b)): significant drift to the left |
| Cc1ccnc(NC(c2ccccc2O)c2ccc3cccnc3c2O)n1 (stereo not shown) [Example 11, 7-[(2-hydroxyphenyl)-(4-methyl-pyrimidin-2-ylamino)-methyl]-quinolin-8-ol] |  |  | 1000 nM | 5 µM |  |  |  |
